Reference: the Kinase Knowledgebase extract (Sharma et al. 2016)

Columns and labels:
[1] = target: MAPK14 (human) (UniProt Q16539); assay: Inhibition of MAPK14 Kinase Activity by PHAS-I Assay; conditions: for inhibition: concentration not given here
[2] = target: MAPK14 (human) (UniProt Q16539); assay: Inhibition of LPS Stimulated TNF Production by U937 Cells; conditions: for inhibition: concentration not given here

Sequence of MAPK14 (human) (Q16539 whole entry, looked up): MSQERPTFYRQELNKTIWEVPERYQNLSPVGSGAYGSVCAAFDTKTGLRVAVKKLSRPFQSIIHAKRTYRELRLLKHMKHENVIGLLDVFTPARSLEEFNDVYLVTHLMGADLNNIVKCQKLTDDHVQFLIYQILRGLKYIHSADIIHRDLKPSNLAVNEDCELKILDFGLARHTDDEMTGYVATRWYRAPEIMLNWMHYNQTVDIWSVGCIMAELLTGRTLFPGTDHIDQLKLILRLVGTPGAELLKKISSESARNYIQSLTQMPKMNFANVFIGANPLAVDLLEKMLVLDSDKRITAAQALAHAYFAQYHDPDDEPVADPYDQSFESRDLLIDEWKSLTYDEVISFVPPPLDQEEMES

Compound	inhibition [1] [%]	inhibition [2] [%]	also measured
O=C(NCCc1[nH]nc(-c2ccc(F)cc2)c1-c1ccncc1)c1ccccc1	74	29	
O=C(NCCCc1[nH]nc(-c2ccc(F)cc2)c1-c1ccncc1)NCCc1ccc(F)cc1		9	IC50 [1]: 19 nM
CCCCOc1ccc(NC(=O)NCCc2[nH]nc(-c3ccc(F)cc3)c2-c2ccncc2)cc1	45	27	
COc1cc(OC)c(NC(=O)NCCc2[nH]nc(-c3ccc(F)cc3)c2-c2ccncc2)cc1Cl	82	32	
CC(=O)OCC(=O)NCCc1[nH]nc(-c2ccc(F)cc2)c1-c1ccncc1	62	57	
CN(C)C(=O)NCc1[nH]nc(-c2ccc(F)cc2)c1-c1ccncc1		51	IC50 [1]: 110 nM
CCOC(=O)C(NC(=O)NCCc1[nH]nc(-c2ccc(F)cc2)c1-c1ccncc1)C(C)C (stereo unspecified)	79	36	
CCC(=O)C(=O)CCCCCNC(=O)NCCc1[nH]nc(-c2ccc(F)cc2)c1-c1ccncc1	69		IC50 [2]: > 1000 nM
O=C(NCCc1[nH]nc(-c2ccc(F)cc2)c1-c1ccncc1)Nc1ccc(OC(F)(F)F)cc1	48	4	
O=C(NCCc1[nH]nc(-c2ccc(F)cc2)c1-c1ccncc1)C1CCC1	72	65	
Cc1c(-c2ccncc2)c(-c2ccc(F)cc2)nn1CC(=O)N[C@@H](C)c1ccccc1	83	46	
CCOC(=O)CC[C@H](NC(=O)Cn1nc(-c2ccc(F)cc2)c(-c2ccncc2)c1C)C(=O)OCC	45		IC50 [2]: > 10000 nM
CNC(=O)CC[C@H](NC(C)=O)c1[nH]nc(-c2ccc(F)cc2)c1-c1ccncc1		46	IC50 [1]: 660 nM
Cc1c(-c2ccncc2)c(-c2ccc(F)cc2)nn1CC(=O)NC1CCc2ccccc21 (stereo unspecified)	73	25	
Cc1c(-c2ccncc2)c(-c2ccc(F)cc2)nn1CC(=O)Nc1ccc(S(=O)(=O)C(F)F)cc1	90	28	
CCOC(=O)COc1cccc(NC(=O)Cn2nc(-c3ccc(F)cc3)c(-c3ccncc3)c2C)c1	83	36	
O=C(NCCc1[nH]nc(-c2ccc(F)cc2)c1-c1ccncc1)c1cccc(Br)c1	0	26	
COc1ccc2[nH]c3c(c2c1)CCN(C(=O)Cn1nc(-c2ccc(F)cc2)c(-c2ccncc2)c1C)C3	39	10	
Cc1cccc(C)c1NC(=O)Cn1nc(-c2ccc(F)cc2)c(-c2ccncc2)c1C	83	18	
COc1ccc(Cl)cc1S(=O)(=O)NCCCc1[nH]nc(-c2ccc(F)cc2)c1-c1ccncc1		64	IC50 [1]: < 100 nM
O=C(NCCc1[nH]nc(-c2ccc(F)cc2)c1-c1ccncc1)NC(=O)c1ccccc1	67	36	
COc1ccc(CC(=O)NCCCc2[nH]nc(-c3ccc(F)cc3)c2-c2ccncc2)cc1	70		IC50 [2]: 1160 nM

Compound	inhibition [1] [%]	inhibition [2] [%]	also measured
O=C(NCCCc1[nH]nc(-c2ccc(F)cc2)c1-c1ccncc1)Nc1cccc(F)c1	80	61	
COc1cc(NC(=O)NCCc2[nH]nc(-c3ccc(F)cc3)c2-c2ccncc2)cc(OC)c1OC	56	23	
Cc1c(-c2ccncc2)c(-c2ccc(F)cc2)nn1CC(=O)N(C)CCn1ccnc1	43		IC50 [2]: > 10000 nM
O=C(NCCc1[nH]nc(-c2ccc(F)cc2)c1-c1ccncc1)Nc1ccccc1OC(F)(F)F	66	48	
C=Cc1ccc(S(=O)(=O)NCc2[nH]nc(-c3ccc(F)cc3)c2-c2ccncc2)cc1	67	9	
O=C(NCCCc1[nH]nc(-c2ccc(F)cc2)c1-c1ccncc1)NCCc1cccnc1		18	IC50 [1]: 71 nM
O=S(=O)(/C=C/c1ccccc1)NCCCc1[nH]nc(-c2ccc(F)cc2)c1-c1ccncc1	69	65	
O=C(NCCc1[nH]nc(-c2ccc(F)cc2)c1-c1ccncc1)Nc1cccc(F)c1	72	66	
CCOC(=O)C(C)NC(=O)NCCc1[nH]nc(-c2ccc(F)cc2)c1-c1ccncc1 (stereo unspecified)	63	25	
CC(C)C(=O)NCCc1[nH]nc(-c2ccc(F)cc2)c1-c1ccncc1	75		
CCCCCCCOc1ccc(NC(=O)Cn2nc(-c3ccc(F)cc3)c(-c3ccncc3)c2C)cc1	89		
O=C(NCc1[nH]nc(-c2ccc(F)cc2)c1-c1ccncc1)c1cc(Cl)cc(Cl)c1			IC50 [1]: 2670 nM
O=C(NCCCc1[nH]nc(-c2ccc(F)cc2)c1-c1ccncc1)N1CCOCC1	82		
Cc1c(-c2ccncc2)c(-c2ccc(F)cc2)nn1CC(=O)Nc1ccc(OCc2ccccc2)cc1	82		
O=S(=O)(NCc1[nH]nc(-c2ccc(F)cc2)c1-c1ccncc1)c1ccc2ccccc2c1			IC50 [1]: 280 nM
COCCN(CC1CCCCC1)C(=O)Cn1nc(-c2ccc(F)cc2)c(-c2ccncc2)c1C	63		
O=S(=O)(NCCCc1[nH]nc(-c2ccc(F)cc2)c1-c1ccncc1)c1ccccc1F	77		
CCNC(=O)NCCCc1[nH]nc(-c2ccc(F)cc2)c1-c1ccncc1	89		
COc1ccc(NC(=O)NCCCc2[nH]nc(-c3ccc(F)cc3)c2-c2ccncc2)cc1	82		
Cc1c(-c2ccncc2)c(-c2ccc(F)cc2)nn1CC(=O)Nc1ccc(Cl)nc1	94		
CSc1ccccc1NC(=O)Cn1nc(-c2ccc(F)cc2)c(-c2ccncc2)c1C	82		
Cc1ccc(C(=O)NCCCc2[nH]nc(-c3ccc(F)cc3)c2-c2ccncc2)cc1	86		

Compound	inhibition [1] [%]	inhibition [2] [%]	also measured
CCOC(=O)C[C@H](NC(=O)Cn1nc(-c2ccc(F)cc2)c(-c2ccncc2)c1C)C(=O)OCC	37		
O=S(=O)(NCCCc1[nH]nc(-c2ccc(F)cc2)c1-c1ccncc1)c1cccs1	84		
O=C(NCCCc1[nH]nc(-c2ccc(F)cc2)c1-c1ccncc1)Nc1ccc(F)cc1	88		
CCN1CCN(C(=O)Cn2nc(-c3ccc(F)cc3)c(-c3ccncc3)c2C)CC1	65		
NC(=O)NCCCc1[nH]nc(-c2ccc(F)cc2)c1-c1ccncc1	90		
Cc1c(-c2ccncc2)c(-c2ccc(F)cc2)nn1CC(=O)NC1CCSC1=O (stereo unspecified)	69		
Cc1c(-c2ccncc2)c(-c2ccc(F)cc2)nn1CC(=O)Nc1ccccc1C(C)C	94		
CC1CCCCN1CCCNc1cc(-c2c[nH]nc2-c2ccc(F)cc2)ccn1 (stereo unspecified)			IC50 [1]: 530 nM
CC(C)OC(=O)NCCCc1[nH]nc(-c2ccc(F)cc2)c1-c1ccncc1	89		
CC[C@H](C)[C@H](NC(=O)Cn1nc(-c2ccc(F)cc2)c(-c2ccncc2)c1C)C(=O)OC	38		
CCCOC(=O)NCCCc1[nH]nc(-c2ccc(F)cc2)c1-c1ccncc1	90		
Cc1c(-c2ccncc2)c(-c2ccc(F)cc2)nn1CC(=O)NC1CCSc2ccccc21 (stereo unspecified)	76		
CC(C)(N)Cc1[nH]nc(-c2ccc(F)cc2)c1-c1ccncc1			IC50 [1]: 110 nM
Cc1c(-c2ccncc2)c(-c2ccc(F)cc2)nn1CC(=O)Nc1ccccc1Cl	90		
Cc1c(-c2ccncc2)c(-c2ccc(F)cc2)nn1CC(=O)NC1CCCCC1C1CCCCC1 (stereo unspecified)	45		
O=C(NCCCc1[nH]nc(-c2ccc(F)cc2)c1-c1ccncc1)c1ccccc1	78		
Cc1c(-c2ccncc2)c(-c2ccc(F)cc2)nn1CC(=O)NC1CCC(C(C)(C)C)CC1 (stereo unspecified)	38		
Cc1c(-c2ccncc2)c(-c2ccc(F)cc2)nn1CC(=O)Nc1cccc(F)c1	92		
Cc1c(-c2ccncc2)c(-c2ccc(F)cc2)nn1CC(=O)NC1Cc2ccccc2C1	69		
O=C(NCCCc1[nH]nc(-c2ccc(F)cc2)c1-c1ccncc1)c1ccccc1I	66		
CCc1cccc(CC)c1NC(=O)Cn1nc(-c2ccc(F)cc2)c(-c2ccncc2)c1C	70		
O=S(=O)(Cc1ccccc1)NCCCc1[nH]nc(-c2ccc(F)cc2)c1-c1ccncc1	87		

Compound	inhibition [1] [%]	inhibition [2] [%]	also measured
COc1ccc(CCN(CCC#N)C(=O)Cn2nc(-c3ccc(F)cc3)c(-c3ccncc3)c2C)cc1OC	72		
CCN(CC)C(=O)N[C@@H](Cc1ccccc1)c1[nH]nc(-c2ccc(F)cc2)c1-c1ccncc1			IC50 [1]: 2200 nM
Cc1c(-c2ccncc2)c(-c2ccc(F)cc2)nn1CC(=O)N(C)CCc1ccncc1	38		
COc1ccc(S(=O)(=O)NCCCc2[nH]nc(-c3ccc(F)cc3)c2-c2ccncc2)cc1	71		
Cc1c(-c2ccncc2)c(-c2ccc(F)cc2)nn1CC(=O)N(CCc1ccccc1)CCc1ccccn1	43		
CC(=O)N1CCN(C(=O)Cn2nc(-c3ccc(F)cc3)c(-c3ccncc3)c2C)CC1	81		
Cc1c(-c2ccncc2)c(-c2ccc(F)cc2)nn1CC(=O)NC(C)CCc1ccccc1 (stereo unspecified)	35		
Cc1c(-c2ccncc2)c(-c2ccc(F)cc2)nn1CC(=O)Nc1ccccc1C(=O)NC(C)c1ccccc1 (stereo unspecified)	86		
O=C(Nc1ccccc1F)N[C@H](Cc1ccccc1)c1[nH]nc(-c2ccc(F)cc2)c1-c1ccncc1			IC50 [1]: 21000 nM
COCC(=O)N[C@H]1CC[C@@H](c2[nH]nc(-c3ccc(Cl)cc3)c2-c2ccncc2)CC1			IC50 [1]: 77 nM
CNC(=O)NCCCc1[nH]nc(-c2ccc(F)cc2)c1-c1ccncc1	84		
Cc1c(-c2ccncc2)c(-c2ccc(F)cc2)nn1CC(=O)Nc1ccc(-n2ccc(C(F)(F)F)n2)cc1	87		
CCCCNS(=O)(=O)c1cccc(NC(=O)Cn2nc(-c3ccc(F)cc3)c(-c3ccncc3)c2C)c1	77		
COCC(=O)NCCCc1[nH]nc(-c2ccc(F)cc2)c1-c1ccncc1	78		
Cc1c(-c2ccncc2)c(-c2ccc(F)cc2)nn1CC(=O)N(CCC#N)CC1CCCO1 (stereo unspecified)	58		
Cc1c(-c2ccncc2)c(-c2ccc(F)cc2)nn1CC(=O)Nc1ccc(Cl)cc1	88		
Cc1ccc(C)c(C(=O)c2ccccc2NC(=O)Cn2nc(-c3ccc(F)cc3)c(-c3ccncc3)c2C)c1	84		
COCCN(C)C(=O)Cn1nc(-c2ccc(F)cc2)c(-c2ccncc2)c1C	35		
Cc1c(-c2ccncc2)c(-c2ccc(F)cc2)nn1CC(=O)NC(Cc1ccccc1)c1ccccc1 (stereo unspecified)	44		
